Consider four molecules from patent US12351829B2, “Generation, proliferation and expansion of epithelial cells from primary tissue into mucosoid cultures” (Max-Planck-Gesellschaft zur Förderung der Wissenschaften …, priority 2018, dated 2025).

Test [1] relates to IL-8 expression in gastric-antrum mucosoid cultures. Put plainly: Pro-inflammatory stimulation of gastric-antrum mucosoid cultures, IL-8 qPCR. It counts as cell-based, human. The following applies: 10 μg/ml TNF-α or 5 μg/ml IL-1β for 3 days; +W+R and −W−R cultures. The method, then:
Filters were cut out of the insert and directly transferred to a tube containing 1 ml Trizol (Thermo). After vortexing samples were incubated for 10 min at RT, vortexed again and frozen at −80° C. for long-term storage. 500 μl of chloroform was added to thawed samples before vortexing, incubation for 2 min at RT and centrifugation for 15 min at 4° C. The aqueous phase was mixed with isopropanol, inverted 6× and incubated for 10 min at RT. The sample was transferred to a total RNA isolation Kit column (Thermo) and processed according to the manufacturer's instructions. Total RNA was measured using a NanoDrop and reverse transcription carried out using the Tetro cDNA synthesis Kit (Bioline). DNA was extracted using AllPrep DNA/RNA Mini Kit (Qiagen) according to the manufacturer's instructions; Total DNA was measured using a NanoDrop. qPCR (Step One, Applied Biosystem) was performed using the SensiMix™ SYBR® hi-ROX Kit (Bioline, 3-step cycling according to the manufacturer).
FIG. 16. Antral mucosoid cultures derived from 3 different patients were cultivated for 13 days. Parallel samples were differentiated by excluding Wnt3A and RSPO1 from the culture for 5 days (A)(B) treatment with 10 μg/ml TNF-α or 5 μg/ml IL-1Iβ for 3 days. Expression of IL-8 was analysed by qPCR and normalized to untreated control cells in +W+R medium. ns: not significant; *p<0.005, unpaired t-test. […]

For test [2], the system named is parietal cells in corpus-stomach mucosoid culture. The following applies: BMP4-induced corpus mucosoid culture; 10 μl of 5 mM Histamin solution. Here is the method: Specific signals are needed to drive the parietal cell lineages and in particular the activation of BMP4 and the suppression MEK/MAPK pathway.
Three corpus samples were taken at passage 4 in ALI and grown for 13 days in regular medium following by 2 weeks treatment with 50 ng/ml of BMP4 and removal of Noggin and EGF. The Corpus-gEPMs on filters were pre-incubated with […] Acridine Orange for 15 min. The filter was cut out of the insert and mounted with the cells facing the glass on a IBIDI chamber with 400 μl of media (the same with AO). A coverslip was put on top. Images were taken with 25× (Glycerol) for 10 min to stabilize the filter and avoid movements. A solution of 10 μl of 5 mM Histamin in medium was applied on the border of the coverslip while imaging. Fluorescence of acridine orange was excited at 488 nm (3-4%) and images were collected in a time series (10sec) at 500-550 nm and 600-650.

The test system of test [3] is ATP4B+ parietal cells in gastric-corpus derived mucosoid cultures. Kind of test: BMP4-induced parietal cell differentiation in corpus-stomach mucosoid culture (ATP4B IF). It is filed as cell-based, human. The note with it: 50 ng/ml BMP4 for two weeks, absence of Noggin and EGF; untreated 0,4%.

For the molecule TNF-α, the “IL-8 expression (qPCR)” value in test [1] is listed as “induced IL-8 expression regardless of W/R”.

For the molecule “IL1-β: recombinant pro-inflammatory cytokine”, the “IL-8 expression (qPCR)” value in test [1] is listed as “induced IL-8 preferentially in +W+R cultures”.

As for `NCCc1c[nH]cn1` [histamine], the “acid production (acridine orange changes to orange)” value in test [2] was “able to produce acid”.

B1: BMP4: BMP pathway activator provided at 50 ng/ml to drive parietal cell lineage (protein, UniProt P12644 293-408, looked up)
Bone morphogenetic protein 4: SPKHHSQRARKKNKNCRRHSLYVDFSDVGWNDWIVAPPGYQAFYCHGDCPFPLADHLNSTNHAIVQTLVNSVNSSIPKACCVPTELSAISMLYLDEYDKVVLKNYQEMVVEGCGCR
B1: the “ATP4B+ parietal cells” value in test [3] was 2,4%.
